US20030044875A1, “Substrate for PP2C” (Schering AG, priority 2001, published 2003)
“Also recorded” adds a separate entry of the source.

Tests used:
PP2Cβ = target: T1, PP2Cβ (Bos taurus, UniProt O62830); assay: Dephosphorylation of phospho-BAD by PP2Cβ, Mg2+-dependence; format: biochemical, bovine
T1 construct: inferred from the Ni-NTA purification; made in house; host or cells: E. coli
T1 sequence (O62830 1-484): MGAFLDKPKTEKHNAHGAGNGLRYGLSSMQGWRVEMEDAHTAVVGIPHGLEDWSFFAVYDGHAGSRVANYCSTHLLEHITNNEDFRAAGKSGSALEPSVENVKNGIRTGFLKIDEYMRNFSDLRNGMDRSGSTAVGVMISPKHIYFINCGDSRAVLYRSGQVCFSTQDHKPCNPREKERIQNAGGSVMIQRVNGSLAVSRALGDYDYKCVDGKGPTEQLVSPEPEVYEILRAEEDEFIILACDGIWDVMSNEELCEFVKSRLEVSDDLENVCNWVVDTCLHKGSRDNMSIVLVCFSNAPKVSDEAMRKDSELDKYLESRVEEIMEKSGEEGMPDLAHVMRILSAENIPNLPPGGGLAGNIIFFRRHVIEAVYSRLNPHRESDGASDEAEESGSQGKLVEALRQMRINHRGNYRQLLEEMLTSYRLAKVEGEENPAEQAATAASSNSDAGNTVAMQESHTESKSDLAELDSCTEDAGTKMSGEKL
Method: Dephosphorylation of phospho-BAD by PP2C is assayed in vitro using recombinant BAD (Lizcano, J. M., Morrice, N. and Cohen, P. (2000) Regulation of Bad by cAMP-dependent protein kinase is mediated via phosphorylation of a novel site, Ser^155. Biochem. J. Vol: 349, 547-557) kindly provided by Sir Philip Cohen, Dundee, UK. cDNA encoding PP2Cβ from bovine brain was expressed in E. Coli and purified using Ni-NTA-Sepharose. (J. Neurosci. Res. 51, 328-338 (1998) Protein phosphatase type-2C isozymes present in vertebrate retinae: purification, characterization, and localization in photoreceptors.)
Incubations were carried out for 30 min at 37° C. The reaction mixture (12 μl) contained 12 μg BAD (GST-fusion protein) (Lizcano et al. (2000) Biochem. J. 349, 547-557), 0.55 μg PKA (Sigma), 1 μM ATP, 15 μCi [γ-^32P]ATP, 5 mM MgCl2 and 25 mM Tris/HCl pH 7.5. After incubation at 37° C. for 30 min, hot and cold ATP were removed by centrisep centrifugation columns. […]
Dephosphorylation of [^32P]BAD depends on the time of incubating PP2Cβ together with the substrate phospho-BAD which is cleaved to give phosphate and BAD. The concentration of [^32P]BAD is measured in this assay, therefore intensive spots on the X-ray sensitive film represent high concentrations of [^32P]BAD, in other words low activity of the enzyme PP2Cβ.

PP2C = details: cited from earlier work

Row | SMILES | Effect of Mg2+ ions on enzymatic activity of PP2C (dephosphorylation of BAD) (PP2Cβ) | Sensitivity of PP2C activity to inhibitor (PP2C)
1 | [Mg+2] [Mg^2+] | requires the presence of Mg^2+-ions; also recorded: increases the enzymatic activity | 
2 | C=C1[C@@H](O)[C@@H]2O[C@]3(CC[C@H](/C=C/[C@@H](C)[C@@H]4CC(C)=C[C@@]5(O[C@H](C[C@@](C)(O)C(=O)O)CC[C@H]5O)O4)O3)CC[C@H]2O[C@@H]1[C@@H](O)C[C@H](C)[C@H]1O[C@@]2(CCCCO2)CC[C@H]1C [okadaic acid] |  | not sensitive
